Test results published in paper PMC12091851, “Replacing a Cereblon Ligand by a DDB1 and CUL4 Associated Factor 11 (DCAF11) Recruiter Converts a Selective Histone Deacetylase 6 PROTAC into a Pan‐Degrader” (Chemmedchem, 2025).

What was measured:
HDAC1 = HDAC1 (Homo sapiens, UniProt Q13547); test: HDAC enzyme inhibition assay; type: biochemical; set-up: purchased BPS Bioscience 50051
Procedure: Bio-Rad) to Immobilon-FL PVDF membranes (Catalog# IPFL00005, Mill ipore Merck, Burlington, MA, USA) at 1.0 A for 30 min and treated with 5% milk-powder solution for 1 h at room temperature […]
Signaling Technology) antibody solutions in 1:1000 –1:8000 dilutions at 4 °C overnight. […]
Significance testing was performed with a one -way analysis of variance (ANOVA). Dunnett’s post -hoc test was employed to obtain significance levels of each mean compared to a reference mean value.
2.7. HDAC Enzyme Inhibition Assay […]
[4] For test compounds and controls, serial dilutions of the respective DMSO stock solution in DMSO were prepared, and 1.0 μL /well of this serial dilution were transferred […]
into OptiPlate-96 black microplates (PerkinElmer, Waltham, […], USA). A volume of 4 µL/well assay […]
BSA) was added. In the case of HDAC1, 2, and 6, a volume of 35 μL/well of the fluorogenic substrate […]
The total assay volume of 50 μL (max. 2 % DMSO) was incubated at 37 °C for 90 min. Subsequently, 50 μL /well of trypsin (0.4 mg/mL) in trypsin buffer (50 mM Tris−HCl, pH 8.0, 100 mM NaCl) was added, followed by additional 30 min of incubation at […]
OPTIMA microplate reader (BMG labtech, Ortenburg, Germany). The half maximal inhibitory concentration (IC50) was determined by plotting dose response curves and nonlinear regression with GraphPad Prism (GraphPad Software).
2.8. MTT Cell Viability Assay […]

HDAC4 = HDAC4 (Homo sapiens, UniProt P56524); test: Immunoblot HDAC4 degradation in MM.1S cell lysates; type: cell-based; set-up: endogenous in cells; host or cells: MM.1S; settings: MM1.S, MM.1S cells, 24 h, read-out: maximal degradation (Dmax) HDAC4
Procedure: Figure 6 Examination of HDAC isoform degradation. MM.1S cells were treated with the indicated compounds (10 μM) or vehicle (DMSO) for 24 h. HDAC1, 2, 4, and 6 levels were analyzed by immunoblotting. (A) Representative images from a total of n=3 biological replicates. […]
The cell lysis was performed as descripted in 3.2. Simple Western Immunoassay. Samples were denatured by Laemmli 2× Concentrate (Catalog# S3401-10VL, Sigma-Aldrich) for 5 min at 95 °C, and Precision Plus Protein Unstained Standard was used as molecular weight marker (Catalog# 1610363, Bio-Rad, Hercules, CA, USA). SDS-PAGE was performed with 10 or 12% Mini-PROTEAN TGX Stain-Free Gel (Catalog# 458035, Bio -Rad) at 200 V for 50 min (Catalog# 458035, Bio -Rad).
Afterwards, proteins were transferred with the Trans -Blot Turbo Transfer System (Catalog# 1704150, Bio-Rad) to Immobilon-FL PVDF membranes (Catalog# IPFL00005, Mill ipore Merck, Burlington, MA, USA) at 1.0 A for 30 min and treated with 5% milk-powder solution for 1 h at room temperature under slight agitation. […] The ChemiDoc XRS+ System (Catalog# 1708265 , Bio-Rad) was used for detection and Image Lab Software 6.1 (Bio-Rad) for quantification. […]

Sequence of HDAC1 (Q13547 whole entry): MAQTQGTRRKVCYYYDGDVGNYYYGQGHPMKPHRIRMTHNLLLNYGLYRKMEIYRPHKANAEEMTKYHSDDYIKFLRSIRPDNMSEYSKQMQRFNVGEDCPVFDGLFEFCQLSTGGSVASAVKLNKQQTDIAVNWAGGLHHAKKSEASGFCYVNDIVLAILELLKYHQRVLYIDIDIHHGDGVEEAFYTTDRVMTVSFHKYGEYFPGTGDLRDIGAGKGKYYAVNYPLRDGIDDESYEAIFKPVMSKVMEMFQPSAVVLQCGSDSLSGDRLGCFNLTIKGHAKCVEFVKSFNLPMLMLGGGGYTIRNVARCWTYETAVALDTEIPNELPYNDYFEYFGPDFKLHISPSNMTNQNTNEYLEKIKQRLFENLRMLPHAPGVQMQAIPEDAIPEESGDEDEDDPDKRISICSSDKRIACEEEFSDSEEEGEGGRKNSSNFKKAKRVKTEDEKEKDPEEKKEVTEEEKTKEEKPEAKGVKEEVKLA
Sequence of HDAC4 (P56524 whole entry, canonical isoform): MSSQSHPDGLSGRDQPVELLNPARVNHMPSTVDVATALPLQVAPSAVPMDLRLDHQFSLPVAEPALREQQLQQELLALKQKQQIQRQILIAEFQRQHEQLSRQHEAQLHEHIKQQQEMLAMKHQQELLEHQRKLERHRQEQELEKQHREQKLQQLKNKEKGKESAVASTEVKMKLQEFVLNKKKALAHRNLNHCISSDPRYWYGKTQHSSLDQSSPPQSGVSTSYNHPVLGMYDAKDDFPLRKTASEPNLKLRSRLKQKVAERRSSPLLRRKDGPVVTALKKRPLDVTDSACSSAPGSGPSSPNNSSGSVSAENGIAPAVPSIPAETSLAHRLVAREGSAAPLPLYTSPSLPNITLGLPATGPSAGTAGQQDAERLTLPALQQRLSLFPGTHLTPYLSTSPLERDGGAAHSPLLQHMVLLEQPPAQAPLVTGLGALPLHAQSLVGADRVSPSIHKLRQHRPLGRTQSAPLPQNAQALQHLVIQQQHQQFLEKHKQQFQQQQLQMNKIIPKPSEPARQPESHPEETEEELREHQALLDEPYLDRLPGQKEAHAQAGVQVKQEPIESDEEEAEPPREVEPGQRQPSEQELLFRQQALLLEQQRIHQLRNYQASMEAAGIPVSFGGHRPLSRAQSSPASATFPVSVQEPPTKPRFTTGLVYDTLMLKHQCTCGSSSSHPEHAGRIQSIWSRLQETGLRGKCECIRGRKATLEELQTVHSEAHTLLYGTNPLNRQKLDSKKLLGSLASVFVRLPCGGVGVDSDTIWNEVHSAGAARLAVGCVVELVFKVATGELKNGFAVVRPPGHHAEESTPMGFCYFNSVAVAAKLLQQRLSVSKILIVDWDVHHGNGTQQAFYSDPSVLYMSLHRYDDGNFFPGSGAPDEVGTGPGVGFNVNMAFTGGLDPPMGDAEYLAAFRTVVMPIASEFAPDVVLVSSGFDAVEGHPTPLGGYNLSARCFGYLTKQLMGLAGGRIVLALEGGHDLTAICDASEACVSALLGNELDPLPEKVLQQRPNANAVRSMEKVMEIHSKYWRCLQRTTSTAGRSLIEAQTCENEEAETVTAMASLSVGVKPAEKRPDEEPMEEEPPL

Row | SMILES | IC50 (HDAC1) [µM] | Dmax at 10 µM (HDAC4) [%]
1 | O=C(CCCCCCNC(=O)c1ccc(N(C(=O)CCl)C(C(=O)NCc2ccccc2)c2ccc(Cl)c(Cl)c2)cc1)NO (stereo not shown) [Compound 2] | 0.159 ± 0.044 | 40
2 | O=C(CCCCCCNC(=O)c1ccc(NC(=O)CCCCCCCCCCCN(C(=O)CCl)C(C(=O)NCc2ccccc2)c2ccc(Cl)c(Cl)c2)cc1)NO (stereo not shown) [Compound 1j] | 1.03 ± 0.04 | 71 to 76
